Measurements as given in publication PMC12582985, “Preparation and characterization of renal cell peptides from fetal rats for their antitumor activity” (FEBS Open Bio, 2025).

Assays:
MCF‐7 cells = experiment: CCK‐8 cell viability assay, MCF‐7; type: cell-based, human; details: for dynamic cytotoxicity against MCF‐7 cells: 45 μg·mL^−1, 12–72 h, CCK‐8 every 12 h, maintained at highest levels to 72 h
From the text: (§1) Human breast cancer MCF‐7 (RRID:CVCL_0031), human lung cancer A549 (RRID:CVCL_0023), human colon cancer HCT‐116 (RRID:CVCL_0291), human cervical cancer Hela (RRID:CVCL_0030), human hepatoma HepG2 (RRID:CVCL_0027), human gastric cancer SGC‐7901 (RRID:CVCL_0520) and human non‐tumor mamma gland epithelial MCF‐10A (RRID:CVCL_0598) and transformed human liver epithelial‐2 (THLE‐2) (RRID:CVCL_3803) cells were obtained from Shanghai Donghuan Biotechnology (Shanghai, China). All cell lines had been authenticated in the past 3 years and again within 4 months after completion of the experiments. All cell lines had been tested for mycoplasma contamination frequently. Their identities were characterized by short tandem repeat analysis. All of these cell lines were cultured in high glucose Dulbecco's modified Eagle's medium supplemented by 10% fetal bovine serum, 100 units·mL^−1 penicillin and 100 μg·mL^−1 streptomycin (complete culture medium).
(§2) MCF‐7 cells (1 × 10^4 cells per well) were treated in triplicate with different doses of each type of RC extract in 96‐well plates for varying time periods. The negative control cells were treated with the diluent of physiological saline, whereas positive control cells were treated with different concentrations (0.1–5 mM) of 5‐fluorouracil (5‐FU) (Leica, Wetzlar, Germany). During the last hour of culture, each well of cells was treated with 10 μL of CCK‐8 solution. The absorbance of the supernatants of individual wells was measured at 450 nm using a microplate reader. Similarly, the effect of different synthesized RCPs (5–45 μg·mL^−1) on the viability of different types of human cancer cells was tested with CCK‐8 assays using the diluent of physiological saline containing the same concentration of dimethylsulfoxide as a negative control and the same concentrations of 5‐FU as the positive controls. Ten RCPs with a predicted strong bioactivity were synthesized by GenScript ([…]) and their purity, sequences and solubility are shown in Table 1. […] The formula used to calculate the cytotoxicity rate of each concentration of RCP was: Cytotoxicity rate (%) = (absorbance value of the control group − absorbance value of the experimental group)/absorbance value of the control group × 100%. In addition, MCF‐7 cells were treated with each type of RCP at 45 μg·mL^−1 for 12–72 h and the dynamic impact of RCP treatment on the viability of MCF‐7 cells was determined every 12 h using CCK‐8 assays.
(§3) Data are expressed as the mean ± SEM. The data distribution was analyzed by Shapiro–Wilk test. The IC50 values of each peptide for individual cell lines were determined using the PRISM, version 8 (GraphPad Software Inc.). Briefly, all dose–response data were converted into […], which were automatically analyzed by PRISM for non‐linear regression to determine and report the IC50 and its SD for each peptide in a specific cell line. The difference among groups was analyzed by analysis of variance and post‐hoc Tukey's tests and the comparison between groups was performed using Student's t‐test and PRISM, version 8 (GraphPad Software Inc.). P < 0.05 was considered statistically significant.

A549 cells = experiment: CCK‐8 cell viability assay, A549; type: cell-based, human; details: CCK‐8, 48 h, triplicate; peptides 5–45 μg·mL^−1; 5‐FU positive control 0.1–5 mM; vs negative control
From the text: as §1, §2, §3

HCT‐116 cells = experiment: CCK‐8 cell viability assay, HCT‐116; type: cell-based, human; details: CCK‐8, 48 h, triplicate; peptides 5–45 μg·mL^−1; 5‐FU positive control 0.1–5 mM; vs negative control
From the text: as §1, §2, §3

Hela cells = experiment: CCK‐8 cell viability assay, Hela; type: cell-based, human; details: CCK‐8, 48 h, triplicate; peptides 5–45 μg·mL^−1; 5‐FU positive control 0.1–5 mM; vs negative control
From the text: as §1, §2, §3

HepG2 cells = experiment: CCK‐8 cell viability assay, HepG2; type: cell-based, human; details: CCK‐8, 48 h, triplicate; peptides 5–45 μg·mL^−1; 5‐FU positive control 0.1–5 mM; vs negative control
From the text: as §1, §2, §3

SGC‐7901 cells = experiment: CCK‐8 cell viability assay, SGC‐7901; type: cell-based, human; details: CCK‐8, 48 h, triplicate; peptides 5–45 μg·mL^−1; 5‐FU positive control 0.1–5 mM; vs negative control
From the text: as §1, §2, §3

MCF‐10A cells = experiment: CCK‐8 cell viability assay, non‐tumor MCF‐10A; type: cell-based, human; details: CCK‐8, 48 h, triplicate; peptides 5–45 μg·mL^−1; 5‐FU positive control 0.1–5 mM; vs negative control
From the text: as §1, §2, §3

THLE‐2 cells = experiment: CCK‐8 cell viability assay, non‐tumor THLE‐2; type: cell-based, human; details: CCK‐8, 48 h, triplicate; peptides 5–45 μg·mL^−1; 5‐FU positive control 0.1–5 mM; vs negative control
From the text: as §1, §2, §3

[1] = test system: cancer cells (MCF‐7, A549, HCT‐116, Hela, HepG2, SGC‐7901) vs non‐tumor MCF‐10A and THLE‐2 cells; experiment: CCK‐8 cytotoxicity, preference for cancer cells over non‐tumor cells; type: cell-based, human; set-up: cytotoxicity against non‐tumor MCF‐10A and THLE‐2 cells compared with tumor cell lines: dose or concentration left out as unconfirmed; details: for preference of cytotoxicity for cancer cells over non‐tumor cells: 5–45 μg·mL^−1, 48 h, CCK‐8; for cytotoxicity against non‐tumor MCF‐10A and THLE‐2 cells compared with tumor cell lines: 48 h, P < 0.05 or P < 0.01
From the text: as §1, §2, §3

[2] = Solubility of the synthesized peptides; type: physicochemical; details: for aqueous solubility: in words; for Solubility: solvent given for the synthesized peptide (GenScript)
[3] = CCK‐8, 48 h, triplicate, peptides 5–45 μg·mL^−1, 5‐FU positive control 0.1–5 mM, vs negative control

Row | Compound | viability of MCF‐7 cells (MCF‐7 cells; [3]) | viability of MCF‐7 cells (MCF‐7 cells; RC extract experiment, positive control 0.1–5 mM, dose‐dependent, P < 0.01) | viability of A549 cells (A549 cells) | viability of HCT‐116 cells (HCT‐116 cells) | viability of Hela cells (Hela cells) | viability of HepG2 cells (HepG2 cells) | viability of SGC‐7901 cells (SGC‐7901 cells) | viability of non‐tumor MCF‐10A cells (MCF‐10A cells) | viability of non‐tumor THLE‐2 cells (THLE‐2 cells) | dynamic cytotoxicity against MCF‐7 cells (MCF‐7 cells) | preference of cytotoxicity for cancer cells over non‐tumor cells [1] | cytotoxicity against non‐tumor MCF‐10A and THLE‐2 cells compared with tumor cell lines [1] | aqueous solubility [2] | Solubility [2]
1 | O=c1[nH]cc(F)c(=O)[nH]1 [5‐FU, 5‐fluorouracil, reference compound] | significantly decreased the viability | significantly reduced the viability | significantly decreased the viability | significantly decreased the viability | significantly decreased the viability | significantly decreased the viability | significantly decreased the viability | significantly decreased the viability | significantly decreased the viability | – | – | – | – | –
2 | EWLKVPCLSTRLINPENMGF [RCP‐6, synthesized 20‐mer renal cell peptide from Sacsin molecular chaperone, trypsin digested] | significantly decreased the viability | – | significantly decreased the viability | significantly decreased the viability | significantly decreased the viability | significantly decreased the viability | significantly decreased the viability | only treatment with the highest doses of them slightly reduced the viability | only treatment with the highest doses of them slightly reduced the viability | increased with time from 12 h post treatment to 48 h | potent cytotoxicity preferably against cancer cells | statistically lower than tumor cell lines | low aqueous solubility | 0.1% Dimethylsulfoxide
3 | FAGDDAPR [RCP‐4, synthesized 8‐mer renal cell peptide from Actin, cytoplasmic 2, trypsin digested] | decreased the viability | – | decreased the viability | decreased the viability | decreased the viability | decreased the viability | decreased the viability | decreased the viability | decreased the viability | – | did not preferably decrease the viability of tumor cells | – | – | Water, pH 7.0
4 | GIYAPDSPRAF [RCP‐8, synthesized 11‐mer renal cell peptide from Vanin 1, protamex‐digested] | decreased the viability | – | decreased the viability | decreased the viability | decreased the viability | decreased the viability | decreased the viability | decreased the viability | decreased the viability | – | did not preferably decrease the viability of tumor cells | – | – | 0.1% Dimethylsulfoxide
5 | GPAGPQGPR [RCP‐3, synthesized 9‐mer renal cell peptide from Collagen alpha‐1 (I) chain, trypsin digested] | decreased the viability | – | decreased the viability | decreased the viability | decreased the viability | decreased the viability | decreased the viability | decreased the viability | decreased the viability | – | did not preferably decrease the viability of tumor cells | – | – | Water, pH 7.0
6 | IYAPDSPRAF [RCP‐10, synthesized 10‐mer renal cell peptide from Vanin 1, protamex‐digested] | decreased the viability | – | decreased the viability | decreased the viability | decreased the viability | decreased the viability | decreased the viability | decreased the viability | decreased the viability | – | did not preferably decrease the viability of tumor cells | – | – | Water, pH 7.0
7 | PAPPKPEPK [RCP‐9, synthesized 9‐mer renal cell peptide from Non‐histone chromosomal protein HMG‐17, trypsin digested] | decreased the viability | – | decreased the viability | decreased the viability | decreased the viability | decreased the viability | decreased the viability | decreased the viability | decreased the viability | – | did not preferably decrease the viability of tumor cells | – | – | Water, pH 7.0
8 | QQHMKFGKKCWRKVWALLYA [RCP‐1, synthesized 20‐mer renal cell peptide from Docking protein 3, trypsin digested] | significantly decreased the viability | – | significantly decreased the viability | significantly decreased the viability | significantly decreased the viability | significantly decreased the viability | significantly decreased the viability | only treatment with the highest doses of them slightly reduced the viability | only treatment with the highest doses of them slightly reduced the viability | increased with time from 12 h post treatment to 48 h | potent cytotoxicity preferably against cancer cells | statistically lower than tumor cell lines | low aqueous solubility | 0.1% Dimethylsulfoxide
